From patent US10472356B2, “Bicyclic ketone sulfonamide compounds” (AMGEN INC., priority 2015, dated 2019)
pIC50: −log10 of the molar value.

Legend:
human Nav1.7 [1] = biological target: T1, human Nav1.7 (Homo sapiens, UniProt Q15858); assay: Nav 1.7 In Vitro PatchXpress (PX) Assay; type: cell-based; settings: HEK 293 cells stably transfected with human Nav1.7; PatchXpress whole cell voltage clamp; partially inactivated state (holding potential yielding 20 to 50% inactivation); read-out: hNav1.7 PX IC50
T1 construct: expressed in transfected cells; host or cells: HEK293
T1 sequence (Q15858 whole entry): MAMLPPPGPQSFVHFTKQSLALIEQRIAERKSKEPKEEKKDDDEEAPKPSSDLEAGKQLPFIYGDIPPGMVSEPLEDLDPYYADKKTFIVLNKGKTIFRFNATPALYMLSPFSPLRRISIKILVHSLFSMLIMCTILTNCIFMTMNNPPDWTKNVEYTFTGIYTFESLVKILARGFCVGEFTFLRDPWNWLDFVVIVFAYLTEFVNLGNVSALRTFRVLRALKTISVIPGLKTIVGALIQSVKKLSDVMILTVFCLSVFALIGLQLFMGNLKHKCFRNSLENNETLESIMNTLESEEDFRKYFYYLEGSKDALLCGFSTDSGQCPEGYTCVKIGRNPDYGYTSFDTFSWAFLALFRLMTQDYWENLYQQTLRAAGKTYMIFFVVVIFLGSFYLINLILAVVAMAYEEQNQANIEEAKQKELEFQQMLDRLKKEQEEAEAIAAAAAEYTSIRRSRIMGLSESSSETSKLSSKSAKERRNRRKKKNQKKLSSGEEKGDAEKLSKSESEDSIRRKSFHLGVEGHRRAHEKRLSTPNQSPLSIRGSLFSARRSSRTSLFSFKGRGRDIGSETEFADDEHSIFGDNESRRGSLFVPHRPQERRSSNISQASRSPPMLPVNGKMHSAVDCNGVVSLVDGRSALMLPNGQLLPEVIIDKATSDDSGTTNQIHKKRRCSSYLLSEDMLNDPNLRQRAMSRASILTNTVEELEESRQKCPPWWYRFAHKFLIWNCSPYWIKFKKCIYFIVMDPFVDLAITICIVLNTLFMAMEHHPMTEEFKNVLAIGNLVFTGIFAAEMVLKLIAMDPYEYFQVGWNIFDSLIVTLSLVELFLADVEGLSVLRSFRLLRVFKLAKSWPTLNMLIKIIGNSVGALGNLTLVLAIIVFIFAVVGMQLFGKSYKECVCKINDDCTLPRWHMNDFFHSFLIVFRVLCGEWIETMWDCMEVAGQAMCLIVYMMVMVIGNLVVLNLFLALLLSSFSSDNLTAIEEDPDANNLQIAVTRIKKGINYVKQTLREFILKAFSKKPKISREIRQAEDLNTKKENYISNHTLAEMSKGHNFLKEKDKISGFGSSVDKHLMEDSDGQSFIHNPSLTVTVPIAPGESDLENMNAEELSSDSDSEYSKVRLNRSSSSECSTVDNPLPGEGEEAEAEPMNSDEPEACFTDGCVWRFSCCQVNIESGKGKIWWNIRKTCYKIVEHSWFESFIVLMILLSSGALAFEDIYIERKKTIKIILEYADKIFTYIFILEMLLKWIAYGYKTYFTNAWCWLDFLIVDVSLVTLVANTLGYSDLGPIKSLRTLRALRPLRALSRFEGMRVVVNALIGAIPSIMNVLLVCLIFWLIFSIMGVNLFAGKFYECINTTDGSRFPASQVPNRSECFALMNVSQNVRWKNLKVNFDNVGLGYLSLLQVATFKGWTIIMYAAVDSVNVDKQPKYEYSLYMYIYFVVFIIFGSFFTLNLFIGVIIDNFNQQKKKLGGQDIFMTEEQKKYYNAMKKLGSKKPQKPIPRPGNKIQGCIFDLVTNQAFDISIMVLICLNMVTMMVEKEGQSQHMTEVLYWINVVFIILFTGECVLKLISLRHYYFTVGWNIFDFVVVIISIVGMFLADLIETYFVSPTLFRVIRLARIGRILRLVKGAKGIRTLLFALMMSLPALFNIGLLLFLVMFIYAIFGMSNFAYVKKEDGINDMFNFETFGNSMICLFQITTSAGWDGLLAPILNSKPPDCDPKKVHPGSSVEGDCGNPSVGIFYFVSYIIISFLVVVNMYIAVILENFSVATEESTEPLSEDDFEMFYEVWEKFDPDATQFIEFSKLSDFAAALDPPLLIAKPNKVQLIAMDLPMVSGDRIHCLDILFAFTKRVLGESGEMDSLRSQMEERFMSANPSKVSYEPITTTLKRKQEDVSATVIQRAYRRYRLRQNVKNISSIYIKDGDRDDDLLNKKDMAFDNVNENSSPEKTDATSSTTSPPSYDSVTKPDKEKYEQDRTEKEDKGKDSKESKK
How it was run: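 Whole-cell voltage clamp on HEK 293 cells stably expressing human Nav1.7 (automated patch), holding potential giving 20–50% inactivation; 20 ms pulses to −10 mV at 0.1 Hz. Single compound concentration applied 3 min, peak current inhibition measured; IC50 fitted from 3–5 cells per concentration.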

human Nav1.7 [2] = biological target: T1, human Nav1.7; assay: Nav 1.7 IWB In Vitro Assay (IonWorks Barracuda); type: cell-based; settings: HEK293 cells stably transfected with human Nav 1.7; IonWorks Barracuda population patch-clamp; cells clamped to −20 mV for 4 minutes with compound; 26th pulse; read-out: hNav1.7 IWB IC50
How it was run: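 Population patch clamp of HEK293 cells stably expressing human Nav 1.7: 26 pulses to −20 mV (150 ms, 5 Hz) from −110 mV, then 4 min at −20 mV with compound, 3 s recovery at −110 mV and the train repeated. % inhibition of 26th-pulse peak current vs no compound; IC50 from concentration-response curves.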

pIC50 (human Nav1.7 [1])	pIC50 (human Nav1.7 [2])	SMILES
< 6.00	5.92	COc1cc(-c2cc(F)cc(F)c2)c(F)cc1-n1c2c(ccc1=O)[C@@H](C)N(S(=O)(=O)Nc1ccon1)CC2 [Example 3-A-P, P-(5R)-N-3-isoxazolyl-5-methyl-2-oxo-1-(2,3′,5′-trifluoro-5-methoxy-4-biphenylyl)-1,5,7,8-tetrahydro-1,6-naphthyridine-6(2H)-sulfonamide]
< 6.00	< 4.52	COc1cc(-c2cc(F)cc(F)c2)c(F)cc1-n1c2c(ccc1=O)[C@H](C)N(S(=O)(=O)Nc1ccon1)CC2 [Example 3-B-M, M-(5S)-N-3-isoxazolyl-5-methyl-2-oxo-1-(2,3′,5′-trifluoro-5-methoxy-4-biphenylyl)-1,5,7,8-tetrahydro-1,6-naphthyridine-6(2H)-sulfonamide]
< 6.00	< 5.12	COc1cc(-c2cc(F)cc(F)c2)c(F)cc1-n1c2c(ccc1=O)CN(S(=O)(=O)Nc1ccon1)[C@H](C)C2 [Example 3-D-M, M-(7R)-N-3-isoxazolyl-7-methyl-2-oxo-1-(2,3′,5′-trifluoro-5-methoxy-4-biphenylyl)-1,5,7,8-tetrahydro-1,6-naphthyridine-6(2H)-sulfonamide]
7.48	8.74	COc1cc(-c2cc(F)cc(C(F)(F)F)c2)c(F)cc1-n1c2c(ccc1=O)CN(S(=O)(=O)Nc1cccnn1)CC2 [Example 41, P-1-(2,3′-difluoro-5-methoxy-5′-(trifluoromethyl)-4-biphenylyl)-2-oxo-N-3-pyridazinyl-1,5,7,8-tetrahydro-1,6-naphthyridine-6(2H)-sulfonamide]
7.12	8.11	COc1cc(-c2cccc(C3CC3)c2)c(F)cc1-n1c2c(ccc1=O)CN(S(=O)(=O)Nc1cccnn1)CC2 [Example 42, P-1-(3′-cyclopropyl-2-fluoro-5-methoxy-4-biphenylyl)-2-oxo-N-3-pyridazinyl-1,5,7,8-tetrahydro-1,6-naphthyridine-6(2H)-sulfonamide]
7.35	> 8.70	COc1cc(-c2ccc(F)c(F)c2)c(Cl)cc1-n1c2c(ccc1=O)CN(S(=O)(=O)Nc1ccon1)CC2 [Example 51, P-1-(2-chloro-3′,4′-difluoro-5-methoxy-4-biphenylyl)-N-3-isoxazolyl-2-oxo-1,5,7,8-tetrahydro-1,6-naphthyridine-6(2H)-sulfonamide]
7.64	8.55	COc1cc(-c2cc(OC)c(-n3c4c(ccc3=O)CN(S(=O)(=O)Nc3ccon3)CC4)cc2Cl)ccc1Cl [Example 52, P-1-(2,4′-dichloro-3′,5-dimethoxy-4-biphenylyl)-N-3-isoxazolyl-2-oxo-1,5,7,8-tetrahydro-1,6-naphthyridine-6(2H)-sulfonamide]
8.28	9.15	COc1cc(-c2cc(F)cc(Cl)c2)c(Cl)cc1-n1c2c(ccc1=O)CN(S(=O)(=O)Nc1ccon1)CC2 [Example 53, P-1-(2,3′-dichloro-5′-fluoro-5-methoxy-4-biphenylyl)-N-3-isoxazolyl-2-oxo-1,5,7,8-tetrahydro-1,6-naphthyridine-6(2H)-sulfonamide]
8.16	9.30	COc1cc(-c2cccc(C(F)(F)F)c2)c(Cl)cc1-n1c2c(ccc1=O)CN(S(=O)(=O)Nc1ccon1)CC2 [Example 54, P-1-(2-chloro-5-methoxy-3′-(trifluoromethyl)-4-biphenylyl)-N-3-isoxazolyl-2-oxo-1,5,7,8-tetrahydro-1,6-naphthyridine-6(2H)-sulfonamide]

The next lines start with the compound.

SMILES	pIC50 (human Nav1.7 [1])	pIC50 (human Nav1.7 [2])
COc1cc(-c2cccc(C(F)(F)F)c2)c(Cl)cc1-n1c2c(ccc1=O)CN(S(=O)(=O)Nc1cccnn1)CC2 (single isomer, unassigned) [Example 91-M, M-1-(2-chloro-5-methoxy-3′-(trifluoromethyl)-[1,1′-biphenyl]-4-yl)-2-oxo-N-(pyridazin-3-yl)-1,2,7,8-tetrahydro-1,6-naphthyridine-6(5H)-sulfonamide]	6.17	6.81
COc1cc(-c2ccc(F)c(C)c2)c(Cl)cc1-n1c2c(ccc1=O)CN(S(=O)(=O)Nc1cccnn1)CC2 (single isomer, unassigned) [Example 92-M, M-1-(2-chloro-4′-fluoro-5-methoxy-3′-methyl-[1,1′-biphenyl]-4-yl)-2-oxo-N-(pyridazin-3-yl)-1,2,7,8-tetrahydro-1,6-naphthyridine-6(5H)-sulfonamide]	5.52	6.55
COc1cc(-c2ccc(F)c(C)c2)c(Cl)cc1-n1c2c(ccc1=O)CN(S(=O)(=O)Nc1cccnn1)CC2 (single isomer, unassigned) [Example 92-P, P-1-(2-chloro-4′-fluoro-5-methoxy-3′-methyl-[1,1′-biphenyl]-4-yl)-2-oxo-N-(pyridazin-3-yl)-1,2,7,8-tetrahydro-1,6-naphthyridine-6(5H)-sulfonamide]	7.38	8.23
COc1cc(-c2ccc(F)c(C)c2)c(C)cc1-n1c2c(ccc1=O)CN(S(=O)(=O)Nc1cccnn1)CC2 (single isomer, unassigned) [Example 93-M, M-1-(4′-fluoro-5-methoxy-2,3′-dimethyl-[1,1′-biphenyl]-4-yl)-2-oxo-N-(pyridazin-3-yl)-1,2,7,8-tetrahydro-1,6-naphthyridine-6(5H)-sulfonamide]	5.74	6.57
COc1cc(-c2ccc(F)c(C)c2)c(C)cc1-n1c2c(ccc1=O)CN(S(=O)(=O)Nc1cccnn1)CC2 (single isomer, unassigned) [Example 93-P, P-1-(4′-fluoro-5-methoxy-2,3′-dimethyl-[1,1′-biphenyl]-4-yl)-2-oxo-N-(pyridazin-3-yl)-1,2,7,8-tetrahydro-1,6-naphthyridine-6(5H)-sulfonamide]	6.94	7.66
COc1cc(-c2cc(C)ccc2Cl)c(F)cc1-n1c2c(ccc1=O)CN(S(=O)(=O)Nc1cccnn1)CC2 [Example 43, P-1-(2′-chloro-2-fluoro-5-methoxy-5′-methyl-4-biphenylyl)-2-oxo-N-3-pyridazinyl-1,5,7,8-tetrahydro-1,6-naphthyridine-6(2H)-sulfonamide]	6.81	8.42
COc1ccc(Cl)cc1-c1cc(OC)c(-n2c3c(ccc2=O)CN(S(=O)(=O)Nc2cccnn2)CC3)cc1F [Example 59, P-1-(5′-chloro-2-fluoro-2′,5-dimethoxy-[1,1′-biphenyl]-4-yl)-2-oxo-N-(pyridazin-3-yl)-1,2,7,8-tetrahydro-1,6-naphthyridine-6(5H)-sulfonamide]	7.32	8.19
COc1cc(-c2cc(Cl)cnc2OC)c(F)cc1-n1c2c(ccc1=O)CN(S(=O)(=O)Nc1cccnn1)CC2 [Example 60, P-1-(4-(5-chloro-2-methoxypyridin-3-yl)-5-fluoro-2-methoxyphenyl)-2-oxo-N-(pyridazin-3-yl)-1,2,7,8-tetrahydro-1,6-naphthyridine-6(5H)-sulfonamide]	6.38	7.43
COc1cc(-c2ccc(Cl)cc2)c(F)cc1-n1c2c(ccc1=O)CN(S(=O)(=O)Nc1cccnn1)CC2 [Example 61, P-1-(4′-chloro-2-fluoro-5-methoxy-[1,1′-biphenyl]-4-yl)-2-oxo-N-(pyridazin-3-yl)-1,2,7,8-tetrahydro-1,6-naphthyridine-6(5H)-sulfonamide]	6.71	7.62
